Results taken from paper PMC6369673, “Silent catalytic promiscuity in the high-fidelity terpene cyclase δ-cadinene synthase” (Organic & Biomolecular Chemistry, 2019).
Counter-ions that a name gives are not always drawn. Like-named read-outs stand apart in the source and are kept apart here.

Columns and labels:
[1] = target: DCS; parameters: method as in PMID 22397618; conditions: cited from earlier work
[2] = target: T1, δ-cadinene synthase (DCS-His6) (Gossypium arboreum, UniProt Q39761); assay: Inhibition of δ-cadinene synthase, radiolabelled FDP assay; format: biochemical
T1 construct: hexahistidine (His6) (C); made in house; host or cells: E. coli BL-21 (DE3)
T1 sequence (Q39761 1-554): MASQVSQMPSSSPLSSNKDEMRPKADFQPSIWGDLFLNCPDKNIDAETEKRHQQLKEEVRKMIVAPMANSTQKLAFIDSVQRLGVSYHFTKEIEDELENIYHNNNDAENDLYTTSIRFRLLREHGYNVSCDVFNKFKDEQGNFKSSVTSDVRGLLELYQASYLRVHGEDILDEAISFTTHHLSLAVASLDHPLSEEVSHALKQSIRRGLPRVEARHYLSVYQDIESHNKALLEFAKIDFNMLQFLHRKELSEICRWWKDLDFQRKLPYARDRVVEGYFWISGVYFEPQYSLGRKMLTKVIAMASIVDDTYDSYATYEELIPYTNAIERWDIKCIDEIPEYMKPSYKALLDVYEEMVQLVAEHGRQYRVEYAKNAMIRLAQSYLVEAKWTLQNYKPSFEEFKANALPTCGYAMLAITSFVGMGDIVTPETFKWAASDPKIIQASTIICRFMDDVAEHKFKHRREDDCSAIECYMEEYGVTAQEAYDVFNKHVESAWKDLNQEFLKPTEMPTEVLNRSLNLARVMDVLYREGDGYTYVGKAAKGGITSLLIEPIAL
Experimental: (§1) Recombinant AS and ADS were prepared and purified according to previously published procedures[17],[18] and both (R)-11 and (S)-11 were tested as inhibitors using a standard radiolabelled assay involving conversion of tritium labelled FDP by each enzyme and scintillation counting of the pentane extractable products.[5b] Terpene synthases are known to efficiently bind cation-PPi pairs and inhibition was assessed both in the presence and absence of 250 μM diphosphate (Table 1). Synergistic inhibition of aza-analogues 11 with diphosphate has been observed previously for a variety of other terpene synthases.[5d],[13c],[14]
(§2) Kinetic data were fitted by non-linear regression to the Michaelis–Menten equation (v0 = kcat[E][S]/(KM + [S]). The mode of inhibition was determined by inspection of double reciprocal plots and observed to be competitive in all cases where inhibition was significant at low concentrations of 11. KI was determined from a plot of inhibitor concentration versus K′M/(kcat[E]) where K′M = KM(1 + [I]/KI).
Recombinant DCS was generated with a C-terminal hexahistidine tag (DCS-His6) as previously described.[19] Inhibition assays were carried out using the same protocol used for AS and ADS. […] DCS clearly requires a cation–anion pair in its active site for effective inhibition by aza-analogues. Our results provide strong evidence for 1,6-cyclase activity for DCS. […]
(§3) 2. Steady-state kinetics of DCS-His6, ADS and AS.
(§4) Kinetic assays were carried out according to the standard, linear range, micro-assay procedure previously described.5 The reaction mixtures containing buffer, FDP and protein were prepared on ice in a total volume of 250 µL and were overlaid with ca. 0.8 mL of HPLC-grade hexane prior to incubation. The assay mixtures were initiated by addition of enzyme and incubated at room temp (30 °C) for 10 min. The reactions were immediately ice-cooled and quenched by addition of 200 µL of 100 mM EDTA (pH 8.5) and brief vortexing. The hexane overlay and two additional 1 mL hexane extracts were passed through a short pipette column containing silica gel. The column was washed with additional hexane (1 mL) and the combined filtrates were analysed by liquid scintillation counting using 15 mL of scintillation cocktail Ecoscint O. Steady-State kinetic parameters for DCS-His6 and mutants were obtained by direct fitting of the data to the Michaelis-Menten equation by nonlinear least squares regression in conjunction with the graphical procedures developed by Lineweaver-Burk using the commercial SigmaPlot package (Systat Software).

[3] = target: T2, aristolochene synthase from Penicillium roqueforti (AS) (Penicillium roqueforti, UniProt Q03471); assay: Inhibition of aristolochene synthase, radiolabelled FDP assay; format: biochemical
T2 construct: made in house
Experimental: as §1
as §2, with “[I]/KI). […]” for “[I]/KI).”
as §3, §4

[4] = target: T3, amorpha-4,11-diene synthase (ADS) (Artemisia annua, UniProt Q9AR04); assay: Inhibition of amorpha-4,11-diene synthase, radiolabelled FDP assay; format: biochemical
T3 construct: made in house
Experimental: as §1
as §2, with “[I]/KI). […]” for “[I]/KI).”
as §3, §4

[5] = +250 μM PPi, read-out: K i (μM) (+250 μM PPi)
[6] = K i (μM) (+250 μM PPi), +250 μM PPi

T3 sequence (Q9AR04 whole entry): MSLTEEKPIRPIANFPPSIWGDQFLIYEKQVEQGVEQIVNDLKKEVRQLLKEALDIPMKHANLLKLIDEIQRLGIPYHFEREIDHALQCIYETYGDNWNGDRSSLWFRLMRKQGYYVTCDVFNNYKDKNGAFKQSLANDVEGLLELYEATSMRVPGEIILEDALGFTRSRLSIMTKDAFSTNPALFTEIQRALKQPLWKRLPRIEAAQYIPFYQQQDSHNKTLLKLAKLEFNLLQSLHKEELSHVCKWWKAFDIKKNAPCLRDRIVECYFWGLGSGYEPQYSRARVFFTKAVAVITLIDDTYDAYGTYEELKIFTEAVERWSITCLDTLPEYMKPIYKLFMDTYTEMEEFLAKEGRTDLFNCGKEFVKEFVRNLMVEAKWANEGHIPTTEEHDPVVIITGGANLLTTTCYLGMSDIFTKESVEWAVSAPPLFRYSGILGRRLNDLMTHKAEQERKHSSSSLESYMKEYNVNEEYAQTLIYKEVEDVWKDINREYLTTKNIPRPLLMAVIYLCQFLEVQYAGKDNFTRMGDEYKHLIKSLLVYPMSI
T2 sequence (Q03471 whole entry): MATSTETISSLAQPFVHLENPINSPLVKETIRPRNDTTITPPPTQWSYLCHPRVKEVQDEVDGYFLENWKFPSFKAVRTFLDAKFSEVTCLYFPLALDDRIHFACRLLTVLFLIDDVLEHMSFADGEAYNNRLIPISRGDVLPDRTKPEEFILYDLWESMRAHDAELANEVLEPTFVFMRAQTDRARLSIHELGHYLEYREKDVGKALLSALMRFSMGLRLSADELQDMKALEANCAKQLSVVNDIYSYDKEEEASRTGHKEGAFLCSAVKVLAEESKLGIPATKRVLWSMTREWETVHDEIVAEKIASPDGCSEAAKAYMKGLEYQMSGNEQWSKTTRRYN

## CC(C)=CCCC(C)=C(F)CCC(C)=CCOP(=O)(O)OP(=O)(O)O [6F-FDP, 6-fluorofarnesyl diphosphate]
[1]; DCS, 6F-FDP as substrate analogue
  Ki: 2.4 µM
[1]; pentane-extractable products
  Products when incubated with DCS: no detectable pentane-extractable products

## CC(C)=CCCN(C)[C@@H]1CC=C(C)CC1 (as salt: hydrochloride) [(S)-11]
other
  melting point: 131 to 133 °C

## CC(C)=CCCN(C)[C@H]1CC=C(C)CC1 [(R)-11]
[2]; [5]
  Ki: 2.5 ± 0.5 µM
[2]; absence of PPi, read-out: K i
  Ki: 1700 ± 300 µM
[2]; in the absence of PPi
  Inhibition in words: weak inhibitor
[3]; [6]
  Ki: 489 ± 62 µM
[3]; K i (μM), absence of PPi
  Ki: 472 ± 48 µM
[4]; [5]
  Ki: 3.7 ± 1.9 µM
[4]; absence of PPi, read-out: K i
  Ki: 50 ± 17 µM

## CC(C)=CCCN(C)[C@@H]1CC=C(C)CC1 [(S)-11]
[2]; [5]
  Ki: 3.44 ± 1.43 µM
[2]; absence of PPi, read-out: K i
  Ki: 273 ± 77 µM
[3]; [6]
  Ki: 255 ± 23 µM
[3]; K i (μM), absence of PPi
  Ki: 295 ± 23 µM
[4]; [5]
  Ki: 1.5 ± 0.5 µM
[4]; absence of PPi, read-out: K i
  Ki: 25 ± 5 µM
